Values after ≈ are worked out from the molar mass of the structure shown.
Key:
U373 MG = assay: Cytotoxicity against U373 cancer cell line; format: functional, cell-based, U-373MG ATCC; details: Homo sapiens
B16 = assay: Cytotoxicity against B16 cancer cell line; format: functional, cell-based; details: Mus musculus
SiHa = assay: Cytotoxicity against SiHa cancer cell line; format: functional, cell-based; details: Homo sapiens
HUVEC [1] = assay: Inhibition of NO production in HUVEC cells; format: functional, cell-based; details: Homo sapiens
HUVEC [2] = assay: Antiangiogenic activity against HUVEC cells; format: functional, cell-based; details: Homo sapiens
SK-OV-3 = assay: Cytotoxicity against sk-ov-3 cancer cell line; format: functional, cell-based; details: Homo sapiens
U-87 MG = assay: Cytotoxicity against U87 cancer cell line; format: functional, cell-based, U-87MG ATCC; details: Homo sapiens

SMILES	IC50 (U373 MG) [µg/mL]	IC50 (B16) [µg/mL]	IC50 (SiHa) [µg/mL]	IC50 (HUVEC [1]) [µg/mL]	IC50 (HUVEC [2]) [µg/mL]	IC50 (SK-OV-3) [µg/mL]	IC50 (U-87 MG) [µg/mL]
C=C1CC[C@H]2C(C)(C)CCC[C@]2(C)[C@H]1C/C=C1/CCOC1=O	40.4 (≈ 134 µM)	17.6 (≈ 58.2 µM)	> 50	4.5 (≈ 14.9 µM)	2.2 (≈ 7.27 µM)	4.3 (≈ 14.2 µM)	> 50
CC1=CC[C@H]2C(C)(C)CCC[C@]2(C)[C@H]1C/C=C1\CCOC1=O	4.7 (≈ 15.5 µM)	9.1 (≈ 30.1 µM)	17 (≈ 56.2 µM)	18 (≈ 59.5 µM)	2.6 (≈ 8.6 µM)	6 (≈ 19.8 µM)	9.2 (≈ 30.4 µM)
C=C1C(=O)C[C@H]2C(C)(C)CCC[C@]2(C)[C@H]1C/C=C1\CCOC1=O	3.7 (≈ 11.7 µM)	3.4 (≈ 10.7 µM)	7 (≈ 22.1 µM)	0.7 (≈ 2.21 µM)	1.2 (≈ 3.79 µM)	0.9 (≈ 2.84 µM)	1.7 (≈ 5.37 µM)
CC1=CC[C@H]2C(C)(C)CCC[C@]2(C)[C@H]1CC=O	20.6 (≈ 87.9 µM)	21.8 (≈ 93 µM)	20.9 (≈ 89.2 µM)	6 (≈ 25.6 µM)	4.8 (≈ 20.5 µM)	23.5 (≈ 100 µM)	11.7 (≈ 49.9 µM)
C=C1[C@H](O)C[C@H]2C(C)(C)CCC[C@]2(C)[C@H]1C/C=C1/CCOC1=O	> 50	> 50	> 50	8 (≈ 25.1 µM)	12.4 (≈ 38.9 µM)	10.1 (≈ 31.7 µM)	> 50
C=C1CC[C@H]2C(C)(C)CCC[C@]2(C)[C@H]1CC=O	7 (≈ 29.9 µM)	4 (≈ 17.1 µM)	14.5 (≈ 61.9 µM)	> 25	2.9 (≈ 12.4 µM)	3.1 (≈ 13.2 µM)	4.1 (≈ 17.5 µM)
C=C1CC[C@H]2C(C)(C)CCC[C@]2(C)[C@H]1C/C=C1\CCOC1=O	15.1 (≈ 49.9 µM)	17.6 (≈ 58.2 µM)	20.2 (≈ 66.8 µM)	5 (≈ 16.5 µM)	1.7 (≈ 5.62 µM)	2 (≈ 6.61 µM)	5 (≈ 16.5 µM)
CC1=CC[C@H]2C(C)(C)CCC[C@]2(C)[C@H]1C/C=C1/CCOC1=O	> 50	> 50	> 50	> 25	4.3 (≈ 14.2 µM)	> 50	> 50
C=C1[C@H](O)C[C@H]2C(C)(C)CCC[C@]2(C)[C@H]1C/C=C1\CCOC1=O	14.9 (≈ 46.8 µM)	16.7 (≈ 52.4 µM)	32 (≈ 100 µM)	13.2 (≈ 41.4 µM)	6.9 (≈ 21.7 µM)	12.4 (≈ 38.9 µM)	12.7 (≈ 39.9 µM)
C=C1C(=O)C[C@H]2C(C)(C)CCC[C@]2(C)[C@H]1C/C=C1/CCOC1=O	0.6 (≈ 1.9 µM)	1.5 (≈ 4.74 µM)	3.4 (≈ 10.7 µM)	0.9 (≈ 2.84 µM)	0.6 (≈ 1.9 µM)	0.8 (≈ 2.53 µM)	1.43 (≈ 4.52 µM)
C=C1[C@@H](O)C[C@H]2C(C)(C)CCC[C@]2(C)[C@H]1C/C=C1/CCOC1=O	15.7 (≈ 49.3 µM)	> 50	31.7 (≈ 99.5 µM)	11.2 (≈ 35.2 µM)	13.8 (≈ 43.3 µM)	5.3 (≈ 16.6 µM)	> 50
C=C1[C@@H](O)C[C@H]2C(C)(C)CCC[C@]2(C)[C@H]1C/C=C1\CCOC1=O [HEDYCHILACTONE A]	> 50	> 50	> 50	11 (≈ 34.5 µM)	12.6 (≈ 39.6 µM)	8.7 (≈ 27.3 µM)	36.8 (≈ 116 µM)
CC(=O)O[C@H]1C(=O)[C@@]2(C)[C@H]([C@H](OC(=O)c3ccccc3)[C@]3(O)C[C@H](OC(=O)[C@H](O)[C@@H](NC(=O)c4ccccc4)c4ccccc4)C(C)=C1C3(C)C)[C@]1(OC(C)=O)CO[C@@H]1C[C@@H]2O [PACLITAXEL]	–	< 0.1	1.3 (≈ 1.52 µM)	–	0.3 (≈ 0.351 µM)	8.7 (≈ 10.2 µM)	3.2 (≈ 3.75 µM)

Reference: ChEMBL document CHEMBL1139017, “Synthesis and biological activity of (+)-hedychilactone A and its analogs from (+)-sclareolide” (Bioorg Med Chem Lett, 2006)
